Where two headings read alike, the source gives them in different places.
How the values were obtained:
[1] = system: Key Grass and Sedge Weeds as well as Grass Crops; assay: Post-Emergent Test II (Table 6); type: in vivo; conditions: given as numbers; for Visual Growth Reduction (%) 14 Days After Application, CYPSS: CYPSS (CYPES: yellow nutsedge, Cyperus esculentus); for Visual Growth Reduction (%) 14 Days After Application, DIGSA: DIGSA: crabgrass (Digitaria sanguinalis); for Visual Growth Reduction (%) 14 Days After Application, ECHSS: ECHSS (ECHCG: barnyardgrass, Echinochloa crus-galli); for Visual Growth Reduction (%) 14 Days After Application, ORYSS: ORYSS (ORYSA: rice, Oryza sativa); for Visual Growth Reduction (%) 14 Days After Application, ORYSS / Visual Growth Reduction (%) 14 Days After Application, TRZSS / Visual Growth Reduction (%) 14 Days After Application, ZEAMX: crop; for Visual Growth Reduction (%) 14 Days After Application, SETFA: SETFA: giant foxtail (Setaria faberi); for Visual Growth Reduction (%) 14 Days After Application, SORVU: SORVU: johnsongrass (Sorghum vulgare); for Visual Growth Reduction (%) 14 Days After Application, TRZSS: TRZSS (TRZAS: wheat, spring, Triticum aestivum); for Visual Growth Reduction (%) 14 Days After Application, ZEAMX: ZEAMX: maize, corn (Zea mays)
Description: (§1) Seeds or nutlets of the desired test plant species were planted in Sun Gro Metro-Mix® 360 planting mixture, which typically has a pH of 6.0 to 6.8 and an organic matter content of about 30 percent, in plastic pots with a surface area of 64 square centimeters. When required to ensure good germination and healthy plants, a fungicide treatment and/or other chemical or physical treatment was applied. The plants were grown for 7-21 days in a greenhouse with an approximate 15 h photoperiod which was maintained at about 23-29° C. during the day and 22-28° C. during the night. Nutrients and water were added on a regular basis and supplemental lighting was provided with overhead metal halide 1000-Watt lamps as necessary. The plants were employed for testing when they reached the first or second true leaf stage.
(§2) A weighed amount, determined by the highest rate to be tested, of each test compound was placed in a 25 mL glass vial and was dissolved in 4 mL of a 97:3 v/v mixture of acetone and DMSO to obtain concentrated stock solutions. […] The concentrated stock solutions obtained were diluted with 20 mL of an aqueous mixture containing acetone, water, isopropyl alcohol, DMSO, Atplus 411F crop oil concentrate, and Triton® X-155 surfactant in a 48.5:39:10:1.5:1.0:0.02 v/v ratio to obtain spray solutions containing the highest application rates. Additional application rates were obtained by serial dilution of 12 mL of the high rate solution into a solution containing 2 mL of 97:3 v/v mixture of acetone and DMSO and 10 mL of an aqueous mixture containing acetone, water, isopropyl alcohol, DMSO, Atplus 411F crop oil concentrate, and Triton X-155 surfactant in a 48.5:39:10:1.5:1.0:0.02 v/v ratio to obtain ½×, ¼×, ⅛× and 1/16× rates of the high rate. Compound requirements are based upon a 12 mL application volume at a rate of 187 liters per hectare (L/ha). Formulated compounds were applied to the plant material with an overhead Mandel track sprayer equipped with 8002E nozzles calibrated to deliver 187 L/ha over an application area of 0.503 square meters at a spray height of 18 inches (43 cm) above the average plant canopy height. Control plants were sprayed in the same manner with the solvent blank.
(§3) The treated plants and control plants were placed in a greenhouse as described above and watered by subirrigation to prevent wash-off of the test compounds. After 14 days, the condition of the test plants as compared with that of the untreated plants was determined visually and scored on a scale of 0 to 100 percent where 0 corresponds to no injury and 100 corresponds to complete kill and presented as indicated in Table A. Some of the compounds tested, application rates employed, plant species tested, and results are given in Table 5.

[2] = system: Key Broadleaf Weed and Crop Species; assay: Post-Emergent Test II (Table 5); type: in vivo; conditions: post-emergence, 336 h, given as numbers; for pest or weed control at 70 g/ha: application rate 70 (kg ai/ha; footnote: g ai/ha); for pest or weed control at 140 g/ha: application rate 140 (kg ai/ha; footnote: g ai/ha)
Description: as §1, §2, §3

[3] = Abutilon theophrasti, ABUTH: velvetleaf (Abutilon theophrasti), read-out: Visual Growth Reduction (%) 14 Days After Application ABUTH
[4] = Amaranthus retroflexus, AMARE: redroot pigweed (Amaranthus retroflexus), read-out: Visual Growth Reduction (%) 14 Days After Application AMARE
[5] = Brassica napus, BRSSS: oilseed rape, canola (Brassica napus), read-out: Visual Growth Reduction (%) 14 Days After Application BRSSS
[6] = Chenopodium album, CHEAL: lambsquarters (Chenopodium album), read-out: Visual Growth Reduction (%) 14 Days After Application CHEAL
[7] = Euphorbia heterophylla, EPHHL: wild poinsettia (Euphorbia heterophylla), read-out: Visual Growth Reduction (%) 14 Days After Application EPHHL
[8] = Helianthus annuus, HELAN: sunflower (Helianthus annuus), read-out: Visual Growth Reduction (%) 14 Days After Application HELAN
[9] = Viola tricolor, VIOTR: wild pansy (Viola tricolor), read-out: Visual Growth Reduction (%) 14 Days After Application VIOTR

| SMILES | Visual Growth Reduction (%) 14 Days After Application, CYPSS ([1]; 70 g ai/ha) | Visual Growth Reduction (%) 14 Days After Application, CYPSS ([1]; 140 g ai/ha) | Visual Growth Reduction (%) 14 Days After Application, DIGSA ([1]; 70 g ai/ha) | Visual Growth Reduction (%) 14 Days After Application, DIGSA ([1]; 140 g ai/ha) | Visual Growth Reduction (%) 14 Days After Application, ECHSS ([1]; 70 g ai/ha) | Visual Growth Reduction (%) 14 Days After Application, ECHSS ([1]; 140 g ai/ha) | Visual Growth Reduction (%) 14 Days After Application, ORYSS ([1]; 70 g ai/ha) | Visual Growth Reduction (%) 14 Days After Application, ORYSS ([1]; 140 g ai/ha) | Visual Growth Reduction (%) 14 Days After Application, SETFA ([1]; 70 g ai/ha) | Visual Growth Reduction (%) 14 Days After Application, SETFA ([1]; 140 g ai/ha) | Visual Growth Reduction (%) 14 Days After Application, SORVU ([1]; 70 g ai/ha) | Visual Growth Reduction (%) 14 Days After Application, SORVU ([1]; 140 g ai/ha) | Visual Growth Reduction (%) 14 Days After Application, TRZSS ([1]; 70 g ai/ha) | Visual Growth Reduction (%) 14 Days After Application, TRZSS ([1]; 140 g ai/ha) | Visual Growth Reduction (%) 14 Days After Application, ZEAMX ([1]; 70 g ai/ha) | Visual Growth Reduction (%) 14 Days After Application, ZEAMX ([1]; 140 g ai/ha) | pest or weed control at 70 g/ha [2, 3] | pest or weed control at 140 g/ha [2, 3] | pest or weed control at 70 g/ha [2, 4] | pest or weed control at 140 g/ha [2, 4] | further results |
| --- | --- | --- | --- | --- | --- | --- | --- | --- | --- | --- | --- | --- | --- | --- | --- | --- | --- | --- | --- | --- | --- |
| C=Cc1c(C(=O)O)nc(-c2ccc(C(F)(F)F)nc2)c(F)c1N [Compound 101] | 80% | 80% | 0% | 10% | 80% | 60% | 40% | 95% | 20% | 40% | 45% | 75% | 10% | 40% | 0% | 25% | 85% | 85% | 100% | 100% | pest or weed control at 70 g/ha [2, 5]: 70%; pest or weed control at 140 g/ha [2, 5]: 80%; pest or weed control at 70 g/ha [2, 6]: 100%; pest or weed control at 140 g/ha [2, 6]: 98%; pest or weed control at 70 g/ha [2, 7]: 98%; pest or weed control at 140 g/ha [2, 7]: 100%; pest or weed control at 70 g/ha [2, 8]: 80%; pest or weed control at 140 g/ha [2, 8]: 85%; pest or weed control at 70 g/ha [2, 9]: 75%; pest or weed control at 140 g/ha [2, 9]: 80% |
| C=Cc1c(N)nc(-c2ccc(C(F)(F)F)nc2)nc1C(=O)O [Compound 102] | 10% | 35% | 0% | 0% | 30% | 70% | 0% | 0% | 0% | 0% | 0% | 0% | 0% | 10% | 0% | 0% | 15% | 15% | 85% | 100% | pest or weed control at 70 g/ha [2, 5]: 20%; pest or weed control at 140 g/ha [2, 5]: 35%; pest or weed control at 70 g/ha [2, 6]: 80%; pest or weed control at 140 g/ha [2, 6]: 75%; pest or weed control at 70 g/ha [2, 7]: 85%; pest or weed control at 140 g/ha [2, 7]: 100%; pest or weed control at 70 g/ha [2, 8]: 65%; pest or weed control at 140 g/ha [2, 8]: 75%; pest or weed control at 70 g/ha [2, 9]: 35%; pest or weed control at 140 g/ha [2, 9]: 80% |
